Experimental data from US20070092551A1, “Therapeutic agent” (TAKARA BIO INC., priority 2003, published 2007).
Like-named read-outs stand apart in the source and are kept apart here.

Test system: mature adipocytes (3T3-L1 cells)
Test: Enhancing action on glucose uptake (2-deoxyglucose) into mature adipocytes
Type: cell-based
Conditions: Mus musculus
[1] = 3T3-L1, 30 μM, X=(S−N)/(P−N) of 2-deoxyglucose uptake, P=insulin 1 μg/mL, read-out: Enhancing Action on Glucose Uptake
[2] = 3T3-L1, 10 μM, X=(S−N)/(P−N) of 2-deoxyglucose uptake, P=insulin 1 μg/mL, read-out: Enhancing Action on Glucose Uptake
[3] = 3T3-L1, read-out: Enhancing Action on Glucose Uptake

Compound | activation at 30 µM [1] [%] | activation at 3 µM (3T3-L1, 3 μM, X=(S−N)/(P−N) of 2-deoxyglucose uptake, P=insulin 1 μg/mL, read-out: Enhancing Action on Glucose Uptake) [%] | activation at 10 µM [2] [%] | activation at 3 µM [3] [%] | activation at 10 µM [3] [%] | activation at 30 µM [3] [%]
COc1ccc(C(=O)/C=C/c2ccc(O)cc2)c2c1CC(O)C(C)(C)O2 (stereo not drawn) [Xanthoangelol H] | 30 to 60 | – | – | – | – | –
COc1ccc(C(=O)/C=C/c2ccc(O)cc2)c(O)c1C/C=C(\C)CCC=C(C)C [Xanthoangelol F, 4,2′-Dihydroxy-3′-geranyl-4′-methoxychalcone] | > 100 | 30 to 60 | > 100 | – | – | –
COc1ccc(C(=O)/C=C/c2ccc(O)cc2)c(O)c1CC=C(C)C [4-Hydroxyderricin, 4,2′-Dihydroxy-3′-prenyl-4′-methoxychalcone] | – | – | – | 60 to 100 | > 100 | > 100
CC(C)=CCC/C(C)=C/Cc1c(O)ccc(C(=O)/C=C/c2ccc(O)cc2)c1O [Xanthoangelol, 4,2′,4′-Trihydroxy-3′-geranylchalcone] | > 100 | – | 30 to 60 | – | – | –
